# Test results reported in patent publication US11285142B2, “Compositions and methods for identifying and treating dystonia disorders” (DUKE UNIVERSITY, priority 2015, dated 2022).
# “Also recorded” adds a separate entry of the source.
# What was measured:
# [1] = tested on: delta-E Torsin1a localization in Flp-In T-REx 293 cells expressing EGFP-delta-E Torsin1a; assay: delta-E Torsin1a mis-localization assay (high-content imaging, % cells with EGFP puncta); assay type: cell-based, human; conditions: delta-E cell line
# Experimental: (§1) To limit variation in expression levels associated with random integration or transient expression, single copies of either WT or delta-E human TOR1A cDNAs with N-terminal EGFP fusions were inserted at the FRT site in Flp-In™ T-Rex™ 293 cells (Thermo Fisher Scientific #R780-07) via flippase recombinase-mediated cassette exchange according to the manufacturer's recommended protocols.
# The cells were maintained at 37° C./5% CO2. All experiments were performed on cells with fewer than 5 passages.
# Torsin1a expression was also controlled by tetracycline induction to avoid selective pressure modifying the cellular phenotypes. […] The mutant phenotype was measured as the percentage of cells with one or more EGFP puncta using automated high-content imaging analysis (see infra).
# The image analysis algorithm was developed using the Cellomics ArrayScan V CompartmentAnalysisV2 protocol. Hoechst's nuclear staining (Ch1: excitation 350 nm; emission 461 nm) was used for focusing and for cell identification by nuclear size, shape, and intensity. […] Detected cells were gated according to nuclear area, length-to-width ratio, and perimeter-to-area ratio. For the purpose of analysis, cell bodies were defined by a radius of 10 μm from the outer edge of the defined nucleus. Overlapping cells were automatically segmented according to the Cellomics ArrayScanV CompartmentAnalysisV2 object segmentation feature. EGFP fluorescence (Ch2: excitation 488 nm; emission 509 nm) was used for puncta detection. […] Torsin1a puncta were identified using the spot detection feature of the Compartmental AnalysisV2 protocol. The percentage of cells containing one or more puncta was used as the primary metric in this assay.
# (§2) In order to test this model directly, the delta-E Torsin1a cell line was treated with compounds targeting the eIF2-alpha signaling pathway (FIG. 2). […] The following day, serial drug dilutions were prepared at 2× final concentration in assay media containing 10 μg/mL tetracycline and 30 μL of the drug/tetracycline mixture was added to the appropriate wells, while control wells received 30 μL of assay media alone or assay media+10 μg/mL tetracycline (final tetracycline concentration for all wells except negative controls: 5 μg/mL). Cells were then incubated at 37° C./5% CO^2 for 48 hours and fixed, permeabilized, Hoechst stained, and imaged as described above. The range of the Torsin1a localization effect was normalized to the percentage of cells with puncta in vehicle-treated delta-E cell line as the maximum and that in WT cell line as the minimum (FIG. 2, panels c-h). Cell count and EGFP-Torsin1a expression were normalized to their respective values in the vehicle-treated delta-E cell line as the maximum. All dose response data are the average of 4 independent experiments per dose. Untreated control data used for normalization are the average of 24 independent experiments.
# [2] = tested on: Flp-In T-REx 293 cells expressing delta-E Torsin1a; assay: Cytotoxicity (cell count, cellular morphology) in the Torsin1a assay cell line; assay type: cell-based, human; conditions: at effective concentrations
# Experimental: as §2
# Efficacy is calculated as the magnitude of the pathology correction relative to the mutant Torsin1a pathology. For example an efficacy=−100% would be equivalent to the WT TorsinA phenotype, and 0% would be equivalent to the Mutant TorsinA phenotype. CCv2 refers to the dose response Curve Class annotation, and AC refers to Active Concentration.
# [3] = tested on: homozygous DYT1 (delta-E Torsin1a) knock-in mice; assay: Perinatal survival of homozygous DYT1 knock-in mice after in utero exposure; assay type: in vivo, mouse
# Experimental: The findings above support a role for the eIF2-alpha signaling pathway in normalizing in vitro cellular phenotypes related to the DYT1 genotype. Next, the effect of targeting eIF2-alpha signaling on the deleterious consequences of the DYT1 TorsinA mutation was determined in vivo. Etiological mouse models of DYT1 dystonia have not had robust dystonic phenotypes. (Tanabe, L. M., et al., (2012) PloS One 7, e32245; Camargos, S. et al., (2008) Lancet. Neurol. 7, 207-15; Seibler, P. et al. (2008) Lancet. Neurol. 7, 380-1.) Nonetheless, another deleterious genotype-dependent effect of the mutation on the animal-neonatal lethality of homozygous delGAG knock-in mice—facilitated interrogation of the impact of eIF2-alpha targeting in vivo (FIG. 4a). (Seibler, P. et al. (2008) Lancet. Neurol. 7, 380-1; Goodchild, R. E., et al, (2005) Neuron 48, 923-32.)
# Pairs of heterozygous delta-E Torsin1a knock-in breeders (courtesy of Dr. W. Dauer, University of Michigan) were randomly assigned to vehicle or salubrinal treatment groups. Starting 10 days after breeding cages were established, each female mouse was given a daily subcutaneous injection of vehicle or salubrinal at approximately 6 p.m. Cages were checked for new pups three times per day: morning (˜8 a.m.), early afternoon (˜2 p.m.), and during injections (˜6 p.m.). In order to minimize stress and the possibility of litter abandonment, mice with newborn pups were not given injections. Newborn pups were identified by marking limbs with a permanent laboratory marker, and tail samples were taken for genotyping at P0. At approximately P0.5, cages were checked again, and the status of each pup was recorded. If pups were first observed at the 8 am check, the 2 pm check was considered P0.5. If pups were first observed at the 2 pm or 6 pm checks, an additional check was performed at approximately midnight, and considered P0.5. Mortality was also tracked the following day, after which time identifying marks were predominately washed off or obscured by fur. […]
# [4] = tested on: WT Torsin1a localization in Flp-In T-REx 293 cells expressing EGFP-WT Torsin1a; assay: Torsin1a localization assay in WT Torsin1a-expressing assay cell line; assay type: cell-based, human; conditions: WT Torsin1a-expressing cell line, dose response
# Text: To develop an assay capable of detecting conditions that correct a dystonia cellular phenotype, two human cell lines were generated that stably expressed EGFP-tagged human wild-type Torsin 1A, or delta-E Torsin1a, from a single cDNA copy integrated at a defined genomic site (FIG. 1, panel 1).
# as §1, with “protocols. This system includes an inducible expression feature (TetON) that avoids selective pressure for potential toxic effects of chronic expression of mutant proteins (FIG. 1, panel 1). […]” for “protocols.”
# This approach provides control over expression levels, avoiding the wide variation typically seen with random genomic integration or transient expression approaches. […] The mutant phenotype was measured as the percentage of cells with one or more EGFP puncta using automated high-content imaging analysis (see infra).
# Development and validation of the high-content image analysis and assay performance under high-throughput screening conditions is presented in FIG. 9. […] Automated exposure times for each plate were determined by setting a target saturation of 25% in channel 1 in wells containing tetracycline-induced delta-E cells. Detected cells were gated according to nuclear area, length-to-width ratio, and perimeter-to-area ratio. […] EGFP fluorescence (Ch2: excitation 488 nm; emission 509 nm) was used for puncta detection. Automated exposure times for each plate were determined by setting a target saturation of 35% in channel 2 in wells containing induced delta-E cells. […]
# [5] = tested on: cortico-striatal synapse LTD (striatal projection neurons); assay: Long-term depression at the cortico-striatal synapse, whole-cell electrophysiology in acute brain slices; assay type: cell-based, mouse
# Experimental: To directly test these predictions, whole-cell electrophysiology of striatal projection neurons was performed in acute brain slices to induce long-term depression in the presence of eIF2-alpha pathway-modulating drugs. Acute horizontal brain slices from the progeny of heterozygous ΔE Torsin1a knockin×homozygous Drd1a-tdTomato mice (age P15-21) were prepared largely as described in (Trusel et al., 2015, Cell Rep. 13, 1353-65). LTD was induced as in Trusel et al., 2015, with modifications.
# Heterozygous delGAG Torsin1a knockin mice (courtesy of Dr. W. Dauer, University of Michigan) were crossed with homozygous Drd1a-tdTomato mice (Jackson Labs) and the progeny was used at postnatal day 15-21 for experiments. […]
# Single slices were transferred to a recording chamber and superfused continuously with ACSF containing 50 μM picrotoxin at 32° C. and 3-4 mL/min. […] Evoked excitatory postsynaptic potentials (EPSPs) were recorded in the dorsolateral striatum, while stimulating every 30 seconds with a concentric bipolar electrode (FHC) in cortical layer V (see Trusel et al., Cell Reports, 2015). […] Baseline EPSPs were recorded for at least 10 min or until a stable baseline was reached. Data were acquired by pClamp v10 and analyzed using Clampfit v10.4, Origin v8.0, and GraphPad Prism v6.
smiles,measurement,setting,value
O=C(/C=C/c1ccccc1)NC(NC(=S)Nc1cccc2cccnc12)C(Cl)(Cl)Cl (stereo not shown) [Salubrinal],EC50,"[1]; Homo sapiens, Flp-In-T-REx-293, 48 hours, dose response, read-out: EC50 of normalization of delta-E Torsin1a localization",2.12 µM
same,effect on delta-E Torsin1a localization (in words),[1]; dose response,robust dose-dependent normalization
same,efficacy on delta-E Torsin1a localization,[1]; normalized to vehicle delta-E (max) and WT (min),66.4%
same,"toxicity (cell count, cellular morphology; in words)",[2],without modifying steady-state EGFP-Torsin1a levels or significant toxicity
same,perinatal survival / mortality of homozygous delta-E/delta-E pups,"[3]; 3.3 mg/kg subcutaneous daily to pregnant dams from about embryonic day 10 through delivery, vs vehicle",dramatically reduced the mortality; also recorded: improves perinatal survival
same,mortality of wildtype or heterozygote pups,"[3]; 3.3 mg/kg subcutaneous daily to pregnant dams, treatment vs control",no mortality differences
same,homozygous delta-E Torsin1a pups that survived through the second postnatal day,"[3]; in utero exposure, no vehicle-treated homozygous pups survived the first postnatal day",two
O=C(COc1ccc(Cl)cc1)NC1CCC(NC(=O)COc2ccc(Cl)cc2)CC1 (stereo not shown) [ISRIB],"effect on WT Torsin1a localization (cells with punctate Torsin1a, in words)",[4],dose-dependent increase
same,LTD in WT brain slices,"[5]; pre-incubation 5 nM, WT mice",robustly inhibited LTD
O=C(/C=C/c1ccccc1)NC(NC(=S)Nc1ccc(Cl)cc1)C(Cl)(Cl)Cl (stereo not shown) [Sal-003],long-term depression in brain slices of mice heterozygous for DYT1 knockin mutation (delGAG),"[5]; 20 μM, vs vehicle-treated slices",restored long-term depression
